Reference: the supplement of paper PMC10883282
± gives the standard deviation of the averaged measurements.

Columns and labels:
Assay in all cases: relative viability vs DMSO control (72 h) (fraction); higher = more viable cells
RD-ES = system: RD-ES
Summary of the method: (§1)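 After seeding at densities set for 80–90% confluence in 384-well plates, sarcoma cell lines waited 24 h before 2.5 µl of serially diluted compound was added. Source plates held 10 mM down to 0.0002 mM. Plates were incubated 72 h at 37 °C with 5% CO2, with 0.1% DMSO vehicle and a 5 µM positive control, and relative viability was taken from ATPLite as percent growth averaged over up to triplicate wells, with 1 set as full and 0 as none.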

SYO-1 = system: SYO-1
Summary of the method: as §1

SK-ES-1 = system: SK-ES-1
Summary of the method: as §1

G401 = system: G401
Summary of the method: as §1

VA-ES-BJ = system: VA-ES-BJ
Summary of the method: as §1

KHOS-240S = system: KHOS-240S
Summary of the method: as §1

HT1080 = system: HT1080
Summary of the method: as §1

RD = system: RD
Summary of the method: as §1

SW982 = system: SW982
Summary of the method: as §1

SW1353 = system: SW1353
Summary of the method: as §1

SK-LMS-1 = system: SK-LMS-1
Summary of the method: as §1

MES-SA = system: MES-SA
Summary of the method: as §1

N#CC1(c2ccc(NC(=O)c3cccnc3NCc3ccncc3)cc2)CCCC1 [Apatinib]
Details	relative viability
G401, 0.00017 µM	1.006 ± 0.0048
G401, 0.00051 µM	1 ± 0.05
G401, 0.00152 µM	0.995 ± 0.034
G401, 0.00457 µM	0.979 ± 0.013
G401, 0.01372 µM	1.01 ± 0.038
G401, 0.04115 µM	0.995 ± 0.048
G401, 0.1235 µM	0.955 ± 0.026
G401, 0.3704 µM	0.927 ± 0.034
G401, 1.111 µM	0.901 ± 0.037
G401, 3.333 µM	0.895 ± 0.033
G401, 10 µM	0.7567 ± 0.0054
HT1080, 0.00017 µM	1.02 ± 0.026
HT1080, 0.00051 µM	1.05 ± 0.013
HT1080, 0.00152 µM	1.05 ± 0.02
HT1080, 0.00457 µM	1.081 ± 0.0097
HT1080, 0.01372 µM	1.07 ± 0.022
HT1080, 0.04115 µM	1.05 ± 0.026
HT1080, 0.1235 µM	1.069 ± 0.0035
HT1080, 0.3704 µM	1.04 ± 0.027
HT1080, 1.111 µM	1.03 ± 0.03
HT1080, 3.333 µM	1.04 ± 0.014
HT1080, 10 µM	0.9829 ± 0.0037
KHOS-240S, 0.00017 µM	1.04 ± 0.041
KHOS-240S, 0.00051 µM	1.06 ± 0.021
KHOS-240S, 0.00152 µM	1.05 ± 0.044
KHOS-240S, 0.00457 µM	1.04 ± 0.038
KHOS-240S, 0.01372 µM	1.04 ± 0.039
KHOS-240S, 0.04115 µM	1.05 ± 0.053
KHOS-240S, 0.1235 µM	1.03 ± 0.026
KHOS-240S, 0.3704 µM	0.991 ± 0.033
KHOS-240S, 1.111 µM	0.97 ± 0.028
KHOS-240S, 3.333 µM	0.956 ± 0.029
KHOS-240S, 10 µM	0.873 ± 0.051
MES-SA, 0.00017 µM	0.978 ± 0.04
MES-SA, 0.00051 µM	0.958 ± 0.027
MES-SA, 0.00152 µM	0.946 ± 0.022
MES-SA, 0.00457 µM	0.9268 ± 0.0057
MES-SA, 0.01372 µM	0.929 ± 0.025
MES-SA, 0.04115 µM	0.939 ± 0.041
MES-SA, 0.1235 µM	0.928 ± 0.03
MES-SA, 0.3704 µM	0.938 ± 0.023
MES-SA, 1.111 µM	0.885 ± 0.028
MES-SA, 3.333 µM	0.875 ± 0.029
MES-SA, 10 µM	0.773 ± 0.022
RD, 0.00017 µM	0.992 ± 0.081
RD, 0.00051 µM	1.02 ± 0.047
RD, 0.00152 µM	1.03 ± 0.04
RD, 0.00457 µM	1.01 ± 0.045
RD, 0.01372 µM	1.02 ± 0.037
RD, 0.04115 µM	1.01 ± 0.035
RD, 0.1235 µM	1.02 ± 0.016
RD, 0.3704 µM	1.01 ± 0.029
RD, 1.111 µM	1.05 ± 0.016
RD, 3.333 µM	1.09 ± 0.02
RD, 10 µM	1.12 ± 0.02
RD-ES, 0.00017 µM	0.936 ± 0.033
RD-ES, 0.00051 µM	0.968 ± 0.033
RD-ES, 0.00152 µM	0.979 ± 0.034
RD-ES, 0.00457 µM	0.946 ± 0.029
RD-ES, 0.01372 µM	0.942 ± 0.023
RD-ES, 0.04115 µM	0.961 ± 0.057
RD-ES, 0.1235 µM	0.955 ± 0.022
RD-ES, 0.3704 µM	0.902 ± 0.032
RD-ES, 1.111 µM	0.91 ± 0.066
RD-ES, 3.333 µM	0.892 ± 0.058
RD-ES, 10 µM	0.798 ± 0.01
SK-ES-1, 0.00017 µM	0.968 ± 0.017
SK-ES-1, 0.00051 µM	0.986 ± 0.047
SK-ES-1, 0.00152 µM	0.95 ± 0.029
SK-ES-1, 0.00457 µM	0.964 ± 0.04
SK-ES-1, 0.01372 µM	1 ± 0.038
SK-ES-1, 0.04115 µM	0.991 ± 0.031
SK-ES-1, 0.1235 µM	0.999 ± 0.014
SK-ES-1, 0.3704 µM	1.01 ± 0.019
SK-ES-1, 1.111 µM	0.978 ± 0.014
SK-ES-1, 3.333 µM	0.936 ± 0.05
SK-ES-1, 10 µM	0.845 ± 0.023
SK-LMS-1, 0.00017 µM	1.06 ± 0.017
SK-LMS-1, 0.00051 µM	1.06 ± 0.024
SK-LMS-1, 0.00152 µM	1.07 ± 0.032
SK-LMS-1, 0.00457 µM	1.05 ± 0.032
SK-LMS-1, 0.01372 µM	1.07 ± 0.042
SK-LMS-1, 0.04115 µM	1.08 ± 0.044
SK-LMS-1, 0.1235 µM	1.01 ± 0.027
SK-LMS-1, 0.3704 µM	1.05 ± 0.014
SK-LMS-1, 1.111 µM	1.02 ± 0.022
SK-LMS-1, 3.333 µM	1 ± 0.041
SK-LMS-1, 10 µM	0.833 ± 0.043
SW982, 0.00017 µM	0.96 ± 0.027
SW982, 0.00051 µM	0.978 ± 0.017
SW982, 0.00152 µM	0.994 ± 0.011
SW982, 0.00457 µM	0.9695 ± 0.0056
SW982, 0.01372 µM	0.99 ± 0.026
SW982, 0.04115 µM	1.009 ± 0.0093
SW982, 0.1235 µM	1 ± 0.022
SW982, 0.3704 µM	0.958 ± 0.061
SW982, 1.111 µM	0.979 ± 0.013
SW982, 3.333 µM	0.975 ± 0.012
SW982, 10 µM	0.999 ± 0.05
SW1353, 0.00017 µM	1.03 ± 0.04
SW1353, 0.00051 µM	1.005 ± 0.002
SW1353, 0.00152 µM	0.988 ± 0.037
SW1353, 0.00457 µM	1.01 ± 0.026
SW1353, 0.01372 µM	0.9811 ± 0.0096
SW1353, 0.04115 µM	0.992 ± 0.023
SW1353, 0.1235 µM	0.981 ± 0.037
SW1353, 0.3704 µM	0.948 ± 0.024
SW1353, 1.111 µM	0.935 ± 0.036
SW1353, 3.333 µM	0.994 ± 0.056
SW1353, 10 µM	0.928 ± 0.025
SYO-1, 0.00017 µM	1.01 ± 0.012
SYO-1, 0.00051 µM	1.03 ± 0.013
SYO-1, 0.00152 µM	1.01 ± 0.039
SYO-1, 0.00457 µM	1.02 ± 0.045
SYO-1, 0.01372 µM	1.01 ± 0.049
SYO-1, 0.04115 µM	1.02 ± 0.051
SYO-1, 0.1235 µM	0.957 ± 0.069
SYO-1, 0.3704 µM	0.91 ± 0.047
SYO-1, 1.111 µM	0.747 ± 0.036
SYO-1, 3.333 µM	0.678 ± 0.027
SYO-1, 10 µM	0.552 ± 0.009
VA-ES-BJ, 0.00017 µM	1.04 ± 0.022
VA-ES-BJ, 0.00051 µM	1.08 ± 0.053
VA-ES-BJ, 0.00152 µM	1.05 ± 0.022
VA-ES-BJ, 0.00457 µM	1.08 ± 0.02
VA-ES-BJ, 0.01372 µM	1.06 ± 0.037
VA-ES-BJ, 0.04115 µM	1.07 ± 0.041
VA-ES-BJ, 0.1235 µM	1.067 ± 0.0077
VA-ES-BJ, 0.3704 µM	1.07 ± 0.03
VA-ES-BJ, 1.111 µM	1.11 ± 0.053
VA-ES-BJ, 3.333 µM	1.14 ± 0.06
VA-ES-BJ, 10 µM	1.17 ± 0.064
